Measurements taken from ChEMBL document CHEMBL1201862, “PubChem BioAssay data set” (2004).
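These data come from cells grown in 96-well plates and exposed to compound for 48 hours at five concentrations. GI50: concentration for 50% inhibition of growth.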 The source made the active and inactive calls. Rule as the data show it: active = GI50 up to about 1.1 µM and inactive = higher.

How the values were obtained:
Assay in all cases: NCI-60 cell line screen, 48 h
TK-10 = system: TK-10
SW-620 = system: SW-620
EKVX = system: EKVX
SK-OV-3 = system: SK-OV-3
NCI-H460 = system: NCI-H460
UACC-62 = system: UACC-62
HCC 2998 = system: HCC 2998
UACC-257 = system: UACC-257
A549 = system: A549
U-251 = system: U-251
MOLT-4 = system: MOLT-4
HOP-92 = system: HOP-92
NCI-H226 = system: NCI-H226
RPMI-8226 = system: RPMI-8226
OVCAR-8 = system: OVCAR-8
HCT-116 = system: HCT-116
SF-268 = system: SF-268
T47D = system: T47D
MDA-N = system: MDA-N
Malme-3M = system: Malme-3M

SMILES | GI50 (TK-10) | GI50 (SW-620) | GI50 (EKVX) | GI50 (SK-OV-3) | GI50 (NCI-H460) | GI50 (UACC-62) | GI50 (HCC 2998) | GI50 (UACC-257) | GI50 (A549) | GI50 (U-251) | GI50 (MOLT-4) | GI50 (HOP-92) | GI50 (NCI-H226) | GI50 (RPMI-8226) | GI50 (OVCAR-8) | GI50 (HCT-116) | GI50 (SF-268) | GI50 (T47D) | GI50 (MDA-N) | GI50 (Malme-3M)
OC1(C(O)(c2ccc(-c3ccccc3)cc2)c2ccc(-c3ccccc3)cc2)CCCCC1 | > 100 µM (inactive) | > 100 µM (inactive) | > 100 µM (inactive) | > 100 µM (inactive) | 44 µM (inactive) | > 100 µM (inactive) | 85.3 µM (inactive) | > 100 µM (inactive) | 81.5 µM (inactive) | > 100 µM (inactive) | 23.9 µM (inactive) | > 100 µM (inactive) | > 100 µM (inactive) | > 100 µM (inactive) | > 100 µM (inactive) | > 100 µM (inactive) | > 100 µM (inactive) | > 100 µM (inactive) | > 100 µM (inactive) | 
CN(C)c1ccc(/C=C2\Oc3ccccc3C2=O)cc1 | > 100 µM (inactive) | > 100 µM (inactive) | > 100 µM (inactive) | > 100 µM (inactive) | > 100 µM (inactive) | > 100 µM (inactive) | > 100 µM (inactive) | > 100 µM (inactive) | > 100 µM (inactive) | > 100 µM (inactive) | > 100 µM (inactive) |  | > 100 µM (inactive) | > 100 µM (inactive) | > 100 µM (inactive) | > 100 µM (inactive) | > 100 µM (inactive) | > 100 µM (inactive) | 34.8 µM (inactive) | 
Oc1ccc(/C=N/c2ccccc2O)cc1 | 59.7 µM (inactive) | 31.3 µM (inactive) | 48 µM (inactive) | > 100 µM (inactive) | 38.9 µM (inactive) | 37.5 µM (inactive) | 45.3 µM (inactive) | 22.3 µM (inactive) | 54.2 µM (inactive) | 31.3 µM (inactive) | 51.2 µM (inactive) | > 100 µM (inactive) | 94.6 µM (inactive) | 22.5 µM (inactive) | 39.4 µM (inactive) | 50.1 µM (inactive) | 96.6 µM (inactive) | 73.5 µM (inactive) | 18.3 µM (inactive) | 
C/C(Cl)=N\OC(=O)Nc1ccc(C)cc1 | 15.2 µM (inactive) | 16.8 µM (inactive) | 18.3 µM (inactive) | 17.3 µM (inactive) | 18.1 µM (inactive) |  | 16.9 µM (inactive) | 18.7 µM (inactive) | 18.2 µM (inactive) | 16.3 µM (inactive) | > 10 µM (inactive) | 20.7 µM (inactive) |  | > 10 µM (inactive) | 17.9 µM (inactive) | 19.1 µM (inactive) | 15.8 µM (inactive) | 16 µM (inactive) | 16.3 µM (inactive) | 16.9 µM (inactive)
COc1ccc(/C=C/C(=N/NC(=O)N/N=C(/C=C/c2ccc(OC)cc2)C(C)(C)CN2CCCCC2)C(C)(C)CN2CCCCC2)cc1 | 2.01 µM (inactive) | 2.11 µM (inactive) | 2.8 µM (inactive) | 1.98 µM (inactive) | 1.65 µM (inactive) |  | 1.74 µM (inactive) | 1.86 µM (inactive) | 1.86 µM (inactive) | 1.85 µM (inactive) | 1.71 µM (inactive) | 1.47 µM (inactive) | 1.5 µM (inactive) | 1.69 µM (inactive) | 1.8 µM (inactive) | 1.33 µM (inactive) |  | 1.99 µM (inactive) | 1.64 µM (inactive) | 1.92 µM (inactive)
O=C1c2ccccc2-n2nnnc2C2CSCN12 (stereo not drawn) | > 100 µM (inactive) | > 100 µM (inactive) | > 100 µM (inactive) | > 100 µM (inactive) | > 100 µM (inactive) | > 100 µM (inactive) | > 100 µM (inactive) | > 100 µM (inactive) | > 100 µM (inactive) | > 100 µM (inactive) | > 100 µM (inactive) |  | > 100 µM (inactive) | > 100 µM (inactive) | > 100 µM (inactive) | > 100 µM (inactive) | > 100 µM (inactive) | > 100 µM (inactive) | > 100 µM (inactive) | > 100 µM (inactive)
COC(=O)CNS(=O)(=O)c1ccc(-c2c3nc(c(-c4ccc(S(=O)(=O)NCC(=O)OC)cc4)c4ccc([nH]4)c(-c4ccc(S(=O)(=O)NCC(=O)OC)cc4)c4nc(c(-c5ccc(S(=O)(=O)NCC(=O)OC)cc5)c5ccc2[nH]5)C=C4)C=C3)cc1 | > 100 µM (inactive) | > 100 µM (inactive) | > 100 µM (inactive) | > 100 µM (inactive) | > 100 µM (inactive) | 62.2 µM (inactive) | > 100 µM (inactive) | > 100 µM (inactive) | > 100 µM (inactive) | 82.6 µM (inactive) | > 100 µM (inactive) |  |  | > 100 µM (inactive) | > 100 µM (inactive) | > 100 µM (inactive) | > 100 µM (inactive) | > 100 µM (inactive) | > 100 µM (inactive) | > 100 µM (inactive)
CC(C)(C)OC(=O)CC(NC(=O)OC(C)(C)C)C(=O)NC(C(=O)O)C(O)c1ccccc1 (stereo not drawn) | > 100 µM (inactive) | 40.3 µM (inactive) | > 100 µM (inactive) | 41.7 µM (inactive) | 69.7 µM (inactive) | 37.5 µM (inactive) | 14.3 µM (inactive) | > 100 µM (inactive) | > 100 µM (inactive) | 77.6 µM (inactive) | 32.4 µM (inactive) |  | 13.9 µM (inactive) | 70.1 µM (inactive) | > 100 µM (inactive) | 79.1 µM (inactive) | 50.2 µM (inactive) | 80.9 µM (inactive) | > 100 µM (inactive) | 90.4 µM (inactive)
Cc1ccc2c(c1)C(=O)C1(C2)Cc2ccc(C)cc2C1=O | > 100 µM (inactive) | > 100 µM (inactive) | > 100 µM (inactive) | > 100 µM (inactive) | > 100 µM (inactive) |  | > 100 µM (inactive) | > 100 µM (inactive) | > 100 µM (inactive) | 71.8 µM (inactive) | > 100 µM (inactive) | > 100 µM (inactive) |  | > 100 µM (inactive) | > 100 µM (inactive) | > 100 µM (inactive) | > 100 µM (inactive) | > 100 µM (inactive) | > 100 µM (inactive) | > 100 µM (inactive)
O=C1/C(=C\c2cccc(Oc3ccccc3)c2)SC(c2ccccc2)N1c1cc(Cl)ccc1Cl (stereo not drawn) | 47 µM (inactive) | 19 µM (inactive) | 38.1 µM (inactive) | > 100 µM (inactive) | 45.4 µM (inactive) | 31.4 µM (inactive) | 37.2 µM (inactive) | 32.7 µM (inactive) | 51.5 µM (inactive) | 33.4 µM (inactive) | 10.4 µM (inactive) | 17.7 µM (inactive) |  | 37 µM (inactive) | 21.3 µM (inactive) | 17.2 µM (inactive) | 22.2 µM (inactive) | 28.4 µM (inactive) | 18.4 µM (inactive) | 28.2 µM (inactive)
N#CC[C@@H](O)COc1ccccc1 | > 100 µM (inactive) | > 100 µM (inactive) | > 100 µM (inactive) | > 100 µM (inactive) | > 100 µM (inactive) | > 100 µM (inactive) | > 100 µM (inactive) | > 100 µM (inactive) | > 100 µM (inactive) | > 100 µM (inactive) | > 100 µM (inactive) |  | > 100 µM (inactive) | > 100 µM (inactive) | > 100 µM (inactive) | > 100 µM (inactive) | > 100 µM (inactive) | > 100 µM (inactive) | > 100 µM (inactive) | > 100 µM (inactive)
COC(=O)/C=C/c1ccc2c(c1)CC1(Cc3ccccc3C1)C2 | > 100 µM (inactive) |  | 23.6 µM (inactive) | > 100 µM (inactive) |  | 15.2 µM (inactive) | > 100 µM (inactive) | > 100 µM (inactive) | 0.0463 µM (active) | > 100 µM (inactive) | 34.9 µM (inactive) | > 100 µM (inactive) | > 100 µM (inactive) | 60.7 µM (inactive) | > 100 µM (inactive) | 0.0478 µM (active) |  | > 100 µM (inactive) | 87.5 µM (inactive) | > 100 µM (inactive)
CN(c1ccc(Cl)cc1)S(=O)(=O)c1ccc([N+](=O)[O-])cc1 | > 100 µM (inactive) | > 100 µM (inactive) | > 100 µM (inactive) | > 100 µM (inactive) | > 100 µM (inactive) | > 100 µM (inactive) | > 100 µM (inactive) | > 100 µM (inactive) | > 100 µM (inactive) | > 100 µM (inactive) | > 100 µM (inactive) |  | > 100 µM (inactive) | > 100 µM (inactive) | > 100 µM (inactive) | > 100 µM (inactive) | > 100 µM (inactive) | > 100 µM (inactive) | > 100 µM (inactive) | 84.7 µM (inactive)
COc1ccc(C2=C(OC(C)=O)c3cccn3-c3ccccc3S2)cc1 | > 10 µM (inactive) | 2.55 µM (inactive) |  | 2.65 µM (inactive) |  | 2.9 µM (inactive) | 2.95 µM (inactive) | > 10 µM (inactive) | 7.53 µM (inactive) |  | 4.06 µM (inactive) | 1.58 µM (inactive) |  | 2.4 µM (inactive) | 5.82 µM (inactive) |  | > 10 µM (inactive) | 5.9 µM (inactive) | 0.34 µM (active) | 2.7 µM (inactive)
O=C(CCc1cccc(O)c1)NCCCNC(=O)CCc1cccc(O)c1 |  | > 100 µM (inactive) | > 100 µM (inactive) | > 100 µM (inactive) | > 100 µM (inactive) | > 100 µM (inactive) | > 100 µM (inactive) | > 100 µM (inactive) | > 100 µM (inactive) | > 100 µM (inactive) | > 100 µM (inactive) | 50.9 µM (inactive) |  | > 100 µM (inactive) | > 100 µM (inactive) | > 100 µM (inactive) | > 100 µM (inactive) | > 100 µM (inactive) | > 100 µM (inactive) | > 100 µM (inactive)
